Measurements: US8192962B2, “Processes for detecting toxic substances” (Daikin Industries, Ltd., priority 2001, dated 2012)

System: Unknown protein yeast genes
Assay: DNA chip mRNA expression in yeast, unknown protein yeast genes (Table 1)
Type: cell-based, Saccharomyces cerevisiae S288C
Method in brief: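 S. cerevisiae S288C grown at 25° C. in YPD to log phase, then exposed 2 h to a toxicant at a growth-inhibiting, non-lethal concentration; untreated cells as control. Poly(A) mRNA reverse-transcribed with Cy3-dUTP or Cy5-dUTP, hybridized >12 h at 65° C. to whole-genome yeast DNA chip; value = fluorescence ratio treated/untreated.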

## CCCCCCCCCCCCOS(=O)(=O)[O-].[Na+] [(18), sodium lauryl sulfate]
Yeast gene YKL151C, incubated two hours with chemical substance
  The level of expressed mRNA in the presence of chemical substance/The level of expressed mRNA in the absence of chemical substance: 1.8
Yeast gene YKL153W, incubated two hours with chemical substance
  The level of expressed mRNA in the presence of chemical substance/The level of expressed mRNA in the absence of chemical substance: 1.3
Yeast gene YKL195W, incubated two hours with chemical substance
  The level of expressed mRNA in the presence of chemical substance/The level of expressed mRNA in the absence of chemical substance: 1.6
Yeast gene YKR091W, incubated two hours with chemical substance
  The level of expressed mRNA in the presence of chemical substance/The level of expressed mRNA in the absence of chemical substance: 1.3
Yeast gene YLR054C, incubated two hours with chemical substance
  The level of expressed mRNA in the presence of chemical substance/The level of expressed mRNA in the absence of chemical substance: 1.1
Yeast gene YLR149C, incubated two hours with chemical substance
  The level of expressed mRNA in the presence of chemical substance/The level of expressed mRNA in the absence of chemical substance: 3.0
Yeast gene YLR152C, incubated two hours with chemical substance
  The level of expressed mRNA in the presence of chemical substance/The level of expressed mRNA in the absence of chemical substance: 1.8
Yeast gene YLR194C, incubated two hours with chemical substance
  The level of expressed mRNA in the presence of chemical substance/The level of expressed mRNA in the absence of chemical substance: 0.9
Yeast gene YLR324W, incubated two hours with chemical substance
  The level of expressed mRNA in the presence of chemical substance/The level of expressed mRNA in the absence of chemical substance: 1.2
Yeast gene YLR350W, incubated two hours with chemical substance
  The level of expressed mRNA in the presence of chemical substance/The level of expressed mRNA in the absence of chemical substance: 1.1
Yeast gene YLR387C, incubated two hours with chemical substance
  The level of expressed mRNA in the presence of chemical substance/The level of expressed mRNA in the absence of chemical substance: 1.4
Yeast gene YLR460C
  The level of expressed mRNA in the presence of chemical substance/The level of expressed mRNA in the absence of chemical substance: 1.1
Yeast gene YML117W, incubated two hours with chemical substance
  The level of expressed mRNA in the presence of chemical substance/The level of expressed mRNA in the absence of chemical substance: 1.3
Yeast gene YMR009W, incubated two hours with chemical substance
  The level of expressed mRNA in the presence of chemical substance/The level of expressed mRNA in the absence of chemical substance: 2.5
Yeast gene YMR067C, incubated two hours with chemical substance
  The level of expressed mRNA in the presence of chemical substance/The level of expressed mRNA in the absence of chemical substance: 1.0
Yeast gene YMR090W
  The level of expressed mRNA in the presence of chemical substance/The level of expressed mRNA in the absence of chemical substance: 2.8
Yeast gene YMR095C, incubated two hours with chemical substance
  The level of expressed mRNA in the presence of chemical substance/The level of expressed mRNA in the absence of chemical substance: 1.0
Yeast gene YMR097C, incubated two hours with chemical substance
  The level of expressed mRNA in the presence of chemical substance/The level of expressed mRNA in the absence of chemical substance: 1.8
Yeast gene YMR102C, incubated two hours with chemical substance
  The level of expressed mRNA in the presence of chemical substance/The level of expressed mRNA in the absence of chemical substance: 2.8
Yeast gene YMR107W, incubated two hours with chemical substance
  The level of expressed mRNA in the presence of chemical substance/The level of expressed mRNA in the absence of chemical substance: 8.1
Yeast gene YMR180C, incubated two hours with chemical substance
  The level of expressed mRNA in the presence of chemical substance/The level of expressed mRNA in the absence of chemical substance: 1.7
Yeast gene YMR184W, incubated two hours with chemical substance
  The level of expressed mRNA in the presence of chemical substance/The level of expressed mRNA in the absence of chemical substance: 2.0
Yeast gene YMR191W, incubated two hours with chemical substance
  The level of expressed mRNA in the presence of chemical substance/The level of expressed mRNA in the absence of chemical substance: 2.1
Yeast gene YMR295C, incubated two hours with chemical substance
  The level of expressed mRNA in the presence of chemical substance/The level of expressed mRNA in the absence of chemical substance: 3.4
Yeast gene YMR315W
  The level of expressed mRNA in the presence of chemical substance/The level of expressed mRNA in the absence of chemical substance: 2.8
Yeast gene YMR316W, incubated two hours with chemical substance
  The level of expressed mRNA in the presence of chemical substance/The level of expressed mRNA in the absence of chemical substance: 6.4
Yeast gene YNL044W, incubated two hours with chemical substance
  The level of expressed mRNA in the presence of chemical substance/The level of expressed mRNA in the absence of chemical substance: 3.4
Yeast gene YNL074C, incubated two hours with chemical substance
  The level of expressed mRNA in the presence of chemical substance/The level of expressed mRNA in the absence of chemical substance: 1.3
Yeast gene YNL092W, incubated two hours with chemical substance
  The level of expressed mRNA in the presence of chemical substance/The level of expressed mRNA in the absence of chemical substance: 1.6
Yeast gene YNL115C, incubated two hours with chemical substance
  The level of expressed mRNA in the presence of chemical substance/The level of expressed mRNA in the absence of chemical substance: 2.6
Yeast gene YNL144C
  The level of expressed mRNA in the presence of chemical substance/The level of expressed mRNA in the absence of chemical substance: 2.8
Yeast gene YNL156C, incubated two hours with chemical substance
  The level of expressed mRNA in the presence of chemical substance/The level of expressed mRNA in the absence of chemical substance: 1.9
Yeast gene YNL234W, incubated two hours with chemical substance
  The level of expressed mRNA in the presence of chemical substance/The level of expressed mRNA in the absence of chemical substance: 1.0
Yeast gene YNL281W, incubated two hours with chemical substance
  The level of expressed mRNA in the presence of chemical substance/The level of expressed mRNA in the absence of chemical substance: 0.9
Yeast gene YNL305C, incubated two hours with chemical substance
  The level of expressed mRNA in the presence of chemical substance/The level of expressed mRNA in the absence of chemical substance: 1.6
Yeast gene YNR068C, incubated two hours with chemical substance
  The level of expressed mRNA in the presence of chemical substance/The level of expressed mRNA in the absence of chemical substance: 1.0
Yeast gene YOL032W, incubated two hours with chemical substance
  The level of expressed mRNA in the presence of chemical substance/The level of expressed mRNA in the absence of chemical substance: 1.8
Yeast gene YOL036W, incubated two hours with chemical substance
  The level of expressed mRNA in the presence of chemical substance/The level of expressed mRNA in the absence of chemical substance: 0.9
Yeast gene YOL047C, incubated two hours with chemical substance
  The level of expressed mRNA in the presence of chemical substance/The level of expressed mRNA in the absence of chemical substance: 1.0
Yeast gene YOL071W, incubated two hours with chemical substance
  The level of expressed mRNA in the presence of chemical substance/The level of expressed mRNA in the absence of chemical substance: 2.0
Yeast gene YOL082W, incubated two hours with chemical substance
  The level of expressed mRNA in the presence of chemical substance/The level of expressed mRNA in the absence of chemical substance: 2.5
Yeast gene YOL083W, incubated two hours with chemical substance
  The level of expressed mRNA in the presence of chemical substance/The level of expressed mRNA in the absence of chemical substance: 3.2
Yeast gene YOL117W, incubated two hours with chemical substance
  The level of expressed mRNA in the presence of chemical substance/The level of expressed mRNA in the absence of chemical substance: 1.4
Yeast gene YOL131W, incubated two hours with chemical substance
  The level of expressed mRNA in the presence of chemical substance/The level of expressed mRNA in the absence of chemical substance: 0.9
Yeast gene YOL150C
  The level of expressed mRNA in the presence of chemical substance/The level of expressed mRNA in the absence of chemical substance: 2.2
Yeast gene YOL162W, incubated two hours with chemical substance
  The level of expressed mRNA in the presence of chemical substance/The level of expressed mRNA in the absence of chemical substance: 0.9
Yeast gene YOR019W, incubated two hours with chemical substance
  The level of expressed mRNA in the presence of chemical substance/The level of expressed mRNA in the absence of chemical substance: 2.8
Yeast gene YOR197W, incubated two hours with chemical substance
  The level of expressed mRNA in the presence of chemical substance/The level of expressed mRNA in the absence of chemical substance: 1.5
Yeast gene YPL087W, incubated two hours with chemical substance
  The level of expressed mRNA in the presence of chemical substance/The level of expressed mRNA in the absence of chemical substance: 2.7
Yeast gene YPL196W, incubated two hours with chemical substance
  The level of expressed mRNA in the presence of chemical substance/The level of expressed mRNA in the absence of chemical substance: 2.3
Yeast gene YPL206C, incubated two hours with chemical substance
  The level of expressed mRNA in the presence of chemical substance/The level of expressed mRNA in the absence of chemical substance: 1.9
Yeast gene YPL222W, incubated two hours with chemical substance
  The level of expressed mRNA in the presence of chemical substance/The level of expressed mRNA in the absence of chemical substance: 0.9
Yeast gene YPR023C, incubated two hours with chemical substance
  The level of expressed mRNA in the presence of chemical substance/The level of expressed mRNA in the absence of chemical substance: 1.1
Yeast gene YPR151C, incubated two hours with chemical substance
  The level of expressed mRNA in the presence of chemical substance/The level of expressed mRNA in the absence of chemical substance: 1.4
